Earlier results on 3 compounds are cited in EP0716679B1, “METHOD OF CLEANING VINYL SURFACES BY MEANS OF MILDLY ACIDIC HARD SURFACE CLEANING COMPOSITIONS CONTAINING AMINE OXIDE DETERGENT SURFACTANTS” (THE PROCTER & GAMBLE COMPANY, priority 1993, dated 1995).

Like-named read-outs stand apart in the source and are kept apart here.

As for `O=C(O)C(=O)O` [Oxalic acid], the “pKa of acidifying agent” value (first pKa) was […] and the “pKa of acidifying agent” value (second pKa) is recorded as […].

Take `O=C(O)CN(CCN(CC(=O)O)CC(=O)O)CC(=O)O` [Ethylene diamine tetraacetic acid]: the “pKa of acidifying agent” value is on record as 1.7 (first pKa), 10.6 (fourth pKa printed), 2.6 (second pKa) and 6.3 (third pKa printed).

As to `O=C(O)CC(O)C(=O)O` (stereo not shown) [Malic acid], the “pKa of acidifying agent” value (second pKa) is recorded as 5.05.
